Drawing on patent publication US7902200B2, “Chemical compounds” (AstraZeneca AB, priority 2006, dated 2011), this text covers EC50 for twelve compounds.

Assay [1] concerns the target T1, recombinant human pancreatic GLK (Homo sapiens, UniProt P35557).
T1 construct: 6-His (N); made in house; host or cells: E. coli BL21
T1 sequence (P35557 1-465): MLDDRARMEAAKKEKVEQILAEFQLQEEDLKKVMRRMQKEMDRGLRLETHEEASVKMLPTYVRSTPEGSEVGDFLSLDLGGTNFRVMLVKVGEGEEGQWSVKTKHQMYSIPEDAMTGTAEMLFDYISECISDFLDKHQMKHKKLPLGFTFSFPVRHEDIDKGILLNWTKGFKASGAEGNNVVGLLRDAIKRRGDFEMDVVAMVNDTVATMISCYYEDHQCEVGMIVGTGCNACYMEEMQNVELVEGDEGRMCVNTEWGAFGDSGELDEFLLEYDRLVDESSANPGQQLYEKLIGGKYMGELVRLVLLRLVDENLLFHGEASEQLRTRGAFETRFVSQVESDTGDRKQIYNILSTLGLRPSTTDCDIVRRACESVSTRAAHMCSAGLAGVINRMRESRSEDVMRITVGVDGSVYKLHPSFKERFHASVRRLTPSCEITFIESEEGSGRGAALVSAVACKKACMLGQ
Description: GKH1 variant of GLK enzymatic activity assay (manual bench-top rate assay). Conditions: activation of GLK; 60 nmol/l GLK; rate over 5 minute window; no GLKRP. In kind it is biochemical. On the procedure:
(§1) Enzymatic activity of recombinant human pancreatic GLK may be measured by incubating GLK, ATP and glucose. The rate of product formation may be determined by coupling the assay to a G-6-P dehydrogenase, NADP/NADPH system and measuring the linear increase with time of optical density at 340 nm (Brocklehurst et al (Diabetes 2004, 53, 535-541). Activation of GLK by compounds can be assessed using this assay in the presence or absence of GLKRP as described in Brocklehurst et al (Diabetes 2004, 53, 535-541).
(§2) One or both of two variants of this assay, GKH1 and GKH4, were used to test the compounds of the invention. The GKH1 assay is a manual, bench-top rate assay using 60 nmol/l of recombinant human pancreatic GLK. The GLK activity rate is measured over a 5 minute window using a Multiskan Ascent spectrophotometer. The GKH4 assay is an automated end-point assay using 10 nmol/l of recombinant human pancreatic GLK. The GLK activity is measured at 10 minutes after the initiation of the assay on a Perkin Elmer Envision spectrophotometer.

The target in assay [2] is T1, recombinant human pancreatic GLK. Kind of assay: GKH4 variant of GLK enzymatic activity assay (automated end-point assay). In kind it is biochemical. Conditions: activation of GLK; 10 nmol/l GLK; end-point at 10 minutes; no GLKRP. The method, then:
as §1, §2

As to `Cc1cnc(NC(=O)c2cc(Oc3ccc4c(c3)OCCN(C)S4(=O)=O)cc(O[C@H]3CCN(C)C3=O)c2)cn1` [Example 11, 3-[(5-methyl-6,6-dioxo-2-oxa-6-λ^6-thia-5-azabicyclo[5.4.0]undeca-8,10,12-trien-10-yl)oxy]-5-(1-methyl-2-oxo-pyrrolidin-3-yl)oxy-N-(5-methylpyrazin-2-yl)benzamide], the EC50 (usually the concentration giving half of the maximal effect) in assay [1] was found to be 140 nM; in assay [2], 310 nM.
Take `CN1CC[C@H](Oc2cc(Oc3ccc4c(c3)OCCCS4(=O)=O)cc(C(=O)Nc3cc[nH]n3)c2)C1=O` [Example 25, 3-[(2,2-Dioxo-6-oxa-2-λ^6-thiabicyclo[5.4.0]undeca-7,9,11-trien-9-yl)oxy]-5-[(3S)-1-methyl-2-oxo-pyrrolidin-3-yl]oxy-N-(1H-pyrazol-3-yl)benzamide]: the EC50 in assay [1] worked out at 30 nM; in assay [2], 40 nM.
Consider `Cc1cnc(NC(=O)c2cc(Oc3ccc4c(c3)OCN(C)C4=O)cc(O[C@H]3CCN(C)C3=O)c2)cn1` [Example 15, 3-[(4-Methyl-5-oxo-2-oxa-4-azabicyclo[4.4.0]deca-6,8,10-trien-9-yl)oxy]-5-(1-methyl-2-oxo-pyrrolidin-3-yl)oxy-N-(5-methylpyrazin-2-yl)benzamide], for which the concentration for a half-maximal effect (EC50) is 100 nM in assay [1] and 350 nM in assay [2].
With `Cc1cnc(NC(=O)c2cc(Oc3ccc(C(=O)N4CCC4)nc3)cc(O[C@H]3CCN(C)C3=O)c2)cn1` [Example 1, 3-[6-(Azetidine-1-carbonyl)pyridin-3-yl]oxy-5-[(3S)-1-methyl-2-oxo-pyrrolidin-3-yl]oxy-N-(5-methylpyrazin-2-yl)benzamide], the 50% effective concentration (EC50) in assay [1] was determined as 90 nM; in assay [2], 300 nM.
In the same order, the values of `Cc1cnc(NC(=O)c2cc(Oc3ccc(C(=O)N4CCC4)nc3)cc(O[C@H]3CCN(C4CCC4)C3=O)c2)cn1` [Example 21, 3-[6-(Azetidine-1-carbonyl)pyridin-3-yl]oxy-5-[(3S)-1-cyclobutyl-2-oxo-pyrrolidin-3-yl]oxy-N-(5-methylpyrazin-2-yl)benzamide] are 210 nM and 1110 nM.
`Cc1cnc(NC(=O)c2cc(Oc3ccc(C(=O)N4CCC4)nc3)cc(O[C@@H]3CCN(C4CC4)C3=O)c2)cn1` [Example 18, 3-[6-(Azetidine-1-carbonyl)pyridin-3-yl]oxy-5-[(3R)-1-cyclopropyl-2-oxo-pyrrolidin-3-yl]oxy-N-(5-methylpyrazin-2-yl)benzamide]: the results for the EC50 in assay [1] and in assay [2] were 3340 nM and 7230 nM, respectively.
In the same order, the values of `CCN1CC[C@H](Oc2cc(Oc3ccc(C(=O)N4CCC4)nc3)cc(C(=O)Nc3cnc(C)cn3)c2)C1=O` [Example 23, 3-[6-(Azetidine-1-carbonyl)pyridin-3-yl]oxy-5-[(3S)-1-ethyl-2-oxo-pyrrolidin-3-yl]oxy-N-(5-methylpyrazin-2-yl)benzamide] are 50 nM and 220 nM.
Taken in the same sequence, the figures for `Cc1cnc(NC(=O)c2cc(Oc3cnc(C(=O)N(C)C)cn3)cc(O[C@H]3CCN(C)C3=O)c2)cn1` [Example 24, N,N-Dimethyl-5-[3-[(3S)-1-methyl-2-oxo-pyrrolidin-3-yl]oxy-5-[(5-methylpyrazin-2-yl)carbamoyl]phenoxy]pyrazine-2-carboxamide] were 150 nM and 570 nM.
Take `CCN1CC[C@@H](Oc2cc(Oc3ccc(C(=O)N4CCC4)nc3)cc(C(=O)Nc3cnc(C)cn3)c2)C1=O` [Example 22, -[6-(Azetidine-1-carbonyl)pyridin-3-yl]oxy-5-[(3R)-1-ethyl-2-oxo-pyrrolidin-3-yl]oxy-N-(5-methylpyrazin-2-yl)benzamide]: the figures for the EC50 in assay [1] and in assay [2] were 2370 nM and 6610 nM, respectively.
For `CN1CC[C@H](Oc2cc(Oc3ccc(C(=O)N4CCC4)nc3)cc(C(=O)Nc3cnccn3)c2)C1=O` [Example 12, 3-[6-(Azetidine-1-carbonyl)pyridin-3-yl]oxy-5-[(3S)-1-methyl-2-oxo-pyrrolidin-3-yl]oxy-N-pyrazin-2-yl-benzamide], the EC50 in assay [1] was 300 nM; in assay [2], 430 nM.
As to `CN1CC[C@H](Oc2cc(Oc3ccc(C(=O)N4CCC4)nc3)cc(C(=O)Nc3ccccn3)c2)C1=O` [Example 13, 3-[6-(Azetidine-1-carbonyl)pyridin-3-yl]oxy-5-[(3S)-1-methyl-2-oxo-pyrrolidin-3-yl]oxy-N-pyridin-2-yl-benzamide], the EC50 in assay [1] amounted to 430 nM; in assay [2], 170 nM.
In the same order, the values of `Cc1cnc(NC(=O)c2cc(Oc3ccc(C(=O)N4CCC4)nc3)cc(O[C@@H]3CCN(C4CCC4)C3=O)c2)cn1` [Example 20, 3-[6-(Azetidine-1-carbonyl)pyridin-3-yl]oxy-5-[(3R)-1-cyclobutyl-2-oxo-pyrrolidin-3-yl]oxy-N-(5-methylpyrazin-2-yl)benzamide] are 420 nM and 900 nM.
